In experiment [1] the target is T1, TRPV3 Y594 alanine mutation (Homo sapiens, UniProt Q8NET8, Y594A).
T1 construct: YFP or GFP; expressed in transfected cells; host or cells: HEK293T
T1 sequence (Q8NET8 1-790 Y594A): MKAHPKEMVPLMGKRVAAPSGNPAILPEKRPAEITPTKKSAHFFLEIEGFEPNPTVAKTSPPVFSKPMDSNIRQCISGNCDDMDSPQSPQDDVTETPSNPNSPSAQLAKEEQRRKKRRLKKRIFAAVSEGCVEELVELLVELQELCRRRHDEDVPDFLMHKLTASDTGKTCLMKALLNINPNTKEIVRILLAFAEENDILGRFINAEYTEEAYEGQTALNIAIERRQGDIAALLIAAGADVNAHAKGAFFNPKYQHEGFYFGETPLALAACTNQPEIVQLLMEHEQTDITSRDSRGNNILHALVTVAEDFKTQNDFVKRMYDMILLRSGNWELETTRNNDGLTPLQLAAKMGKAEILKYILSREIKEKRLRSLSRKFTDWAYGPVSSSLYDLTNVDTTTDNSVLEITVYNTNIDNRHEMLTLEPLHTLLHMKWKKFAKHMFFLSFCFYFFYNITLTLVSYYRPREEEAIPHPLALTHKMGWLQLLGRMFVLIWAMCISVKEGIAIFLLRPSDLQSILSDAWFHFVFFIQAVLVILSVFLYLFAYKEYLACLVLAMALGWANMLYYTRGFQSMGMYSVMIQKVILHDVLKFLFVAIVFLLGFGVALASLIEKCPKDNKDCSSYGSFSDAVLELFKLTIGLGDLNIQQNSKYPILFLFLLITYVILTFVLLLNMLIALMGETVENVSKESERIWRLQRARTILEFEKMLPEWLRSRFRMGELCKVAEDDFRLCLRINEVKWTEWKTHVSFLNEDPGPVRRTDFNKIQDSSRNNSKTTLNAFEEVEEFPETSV
The experiment in a line: Whole-cell recording of TRPV3 Y594 alanine mutant. The class given is cell-based. As to conditions: 1 mM 2-APB, ± 80 mV. From the text: (§1) As we mentioned above, HCQ may act as a pore blocker of TRPV3. To probe the binding configuration of HCQ to TRPV3, we carried out molecular docking using Rosetta suite (https://rosettacommons.org) ([21]) and validated the docking models with point mutations in TRPV3 (Fig. 4A). […] Furthermore, when we introduced L670A to L591A mutant, we also observed a left shift on the concentration–response curve on this double mutant as compared to L591A mutant (Fig. 4H).
(§2) Figure 4 Residues of the pore domain are critical for HCQ inhibition on TRPV3.A, left panel, docking model of HCQ to the pore domain of TRPV3 structure (6uw4). Right panels, top view and side view of the HCQ-binding pocket. B-J, representative whole-cell recording of TRPV3 and mutants in response to 1 mM 2-APB, the mixture of 1 mM 2-APB and concentration gradients of HCQ with the holding potential of ± 80 mV. K, concentration–response curves of HCQ in WT TRPV3 and mutants (n = 3–5 cells). L, quantification of the inhibitory ratio of HCQ (100 μM) on WT, L591A, and N671Q. […]
(§3) All data from whole-cell recordings were analyzed in Igor Pro (WaveMetrics). IC50 values were determined by fitting the Hill equation to concentration-response relationships. […]

The next experiment has as its target T2, TRPV3 L591A mutant (Homo sapiens, UniProt Q8NET8, L591A).
T2 construct: YFP or GFP; expressed in transfected cells; host or cells: HEK293T
T2 sequence (Q8NET8 1-790 L591A): T1 sequence (Q8NET8 1-790 Y594A) with L591A, A594Y
The experiment in a line: Whole-cell recording of TRPV3 L591A mutant. Type of experiment: cell-based.
From the text: as §1, §2, §3

In general, IC50 refers to the concentration that gives 50% inhibition. Read a low IC50 as greater potency. Broadly, the inhibition is the drop in the measured response relative to a control, in per cent.

Each structure is given as a SMILES string. Numbering of substitutions follows the chain as printed.

For the molecule `CCN(CCO)CCCC(C)Nc1ccnc2cc(Cl)ccc12` (stereo not drawn) [HCQ, hydroxychloroquine], the concentration for half-maximal inhibition (IC50) in experiment [1] was found to be 1.57 ± 0.08 µM; against TRPV3 L591A mutant (1 mM 2-APB, ± 80 mV), 203 ± 10.8 µM. Besides, on TRPV3 L591A mutant (100 μM HCQ), the inhibition at 100 µM came to 28.4%.

Source of the values: publication PMC11460631, “Inhibition of transient receptor potential vanilloid 3 channels by antimalarial hydroxychloroquine alleviates TRPV3-dependent dermatitis” (The Journal of Biological Chemistry, 2024).
